{"source": "patent US20240181123A1", "about": "“DRUG-ELUTING SUTURE FOR ATTENUATING INFLAMMATION IN WOUNDS” (University of Utah Research Foundation, priority 2022, published 2024)", "type": "physicochemical", "description": "In another variation of the manufacturing process involving hot-melt extrusion, a mixed/combined composition of the polymer material (often in the form of a powder) and the anti-inflammatory agent is raised to a temperature above the glass transition temperature of the polymer material. The combined composition is then subjected to hot-melt extrusion to form the suture. The temperature during the hot-melt extrusion process preferably remains at or below 140° C. We discovered that tacrolimus begins to degrade at temperatures above this limit. By carrying out the hot-melt extrusion at temperatures at or below 140° C., the process allows for the formation of the suture without causing degradation of the tacrolimus or the polymer material.", "data": [{"smiles": "C=CC[C@@H]1/C=C(\\C)C[C@H](C)C[C@H](OC)[C@H]2O[C@@](O)(C(=O)C(=O)N3CCCC[C@H]3C(=O)O[C@H](/C(C)=C/[C@@H]3CC[C@@H](O)[C@H](OC)C3)[C@H](C)[C@@H](O)CC1=O)[C@H](C)C[C@@H]2OC", "note": "[tacrolimus]", "values": [{"measurement": "temperature above which tacrolimus begins to degrade", "value": "> 140", "unit": "°C"}]}]}
